test system: Plasmodium falciparum; assay: MMV: Measure of pLDH activity as indication of parasite viability. Gametocytogenesis of 3D7 Plasmodium falciparum strain was induced in vitro and asexual parasites were depleted with N-acetylglucosamine. Gametocytes were treated with dihydroartemisinin, epoxomicin, methylene blue, primaquine, puromycin or chloroquine in 96-well plates and the pLDH activity was evaluated using a modified Makler protocol. Mosquito infectivity was measured by the standard membrane feeding assay.; assay type: functional; design: concentration or dose not given beside the values

| Compound | Growth Inhibition |
| --- | --- |
| O=C(Nc1ccc(Cl)c(Cl)c1)Nc1ccc(Cl)c(Cl)c1 | 10.3704% |
| COc1ccc(-c2nc3cc(Cc4ccc5[nH]c(-c6ccc(OC)cc6)nc5c4)ccc3[nH]2)cc1 | 4.7376% |
| O=c1nc(C=Cc2ccc(Cl)cc2)oc2ccccc12 | 11.0552% |
| Nc1nc(Nc2cccc(F)c2)nc2ccccc12 | 18.202% |
| FC(F)(F)c1cccc(CNC2CCN(CCc3ccccc3)CC2)c1 | 12.4718% |
| CCC(C)NCC(O)(c1ccc(Cl)cc1)c1ccc(Cl)cc1 (centres undefined) | 29.3926% |
| CCCCc1ccc(NS(=O)(=O)c2cc3c4c(c2)CCN4C(=O)CC3)cc1 | -1.4264% |
| CC(=O)c1ccc(NC(=O)CSc2nc(-c3ccccc3Cl)ns2)cc1 | 4.3696% |
| Cc1cccc(N2C(=O)C3C(C2=O)C2(c4ccccc4)C(=O)C3(c3ccccc3)C(c3ccc4c(c3)OCO4)=C2c2ccc3c(c2)OCO3)c1 (centres undefined) | 6.488% |
| COc1ccc(-c2cc3c(SCC(=O)Nc4cc(C(F)(F)F)ccc4Cl)nccn3n2)cc1 | 0.117% |
| O=C(Nc1nc(-c2ccccn2)cs1)c1ccccc1Br | 29.0858% |
| CN(C)c1ccc(C=Cc2nc(=O)c3ccccc3o2)cc1 | 1.8448% |
| COc1cc(-c2nc(-c3ccc(Sc4ccccc4)cc3)c(-c3ccccc3)[nH]2)cc(OC)c1O | 10.5558% |
| COC(=O)c1ccc(Cl)c2c1C1C=CCC1C(c1cccc3ccccc13)N2 (centres undefined) | -3.8852% |
| Oc1ccccc1CN1CCC2(CCCN(Cc3ccccc3F)C2)C1 (centres undefined) | 46.3042% |
| COc1cc2cc(C(=O)Nc3ccccc3)c(N)nc2cc1OC | 2.432% |
| Cc1cc(NC(=O)C2c3ccccc3C(=O)N(CC(C)C)C2c2cccs2)no1 (centres undefined) | 21.7574% |
| Cc1nc2ccccc2c(O)c1CC=C(Cl)Cl | 28.4855% |
| CCCCc1c(C)nc2c(OC)cccc2c1O | 10.7044% |
| COc1cccc(Nc2nc(NCCO)c3ccccc3n2)c1.Cl | 21.665% |
| COc1ccc(C(=O)Nc2ccc(Cl)cc2C(=O)Nc2ccncc2)cc1 | 8.2224% |

| Compound | Growth Inhibition |
| --- | --- |
| COc1ccc(N2CCN(C(CNC(=O)C3CCCCC3)c3ccc4c(c3)OCO4)CC2)cc1 (centres undefined) | 22.7332% |
| N#Cc1nc(Cc2cccc3ccccc23)oc1N1CCN(C(c2ccccc2)c2ccccc2)CC1 | -13.1388% |
| CCCc1c(C)nc2ccccc2c1O | 34.5652% |
| CCOc1ccc(C2N(C)c3ccccc3N2C)cc1 | 9.8332% |
| COc1ccc(C)c2sc(N(Cc3cccnc3)C(=O)c3ccc(C#N)cc3)nc12 | -12.2204% |
| Cc1ccc(N2C3c4ccccc4N(S(=O)(=O)c4ccc(C)cc4)C2c2ccccc2N3S(=O)(=O)c2ccc(C)cc2)cc1 | -2.5084% |
| COc1ccc(CCNC(=O)c2cc(S(=O)(=O)N3CC(C)CC(C)C3)ccc2Sc2ccc(F)cc2)cc1OC (centres undefined) | 10.1532% |
| COc1ccc(Nc2nc(N/N=C/c3ccc(O)cc3)nc(Nc3ccc([N+](=O)[O-])cc3)n2)cc1 | 24.1364% |
| COc1ccc2sc(N(Cc3cccnc3)C(=O)c3ccc(C#N)cc3)nc2c1 | -6.4226% |
| COCCn1c(C)nc2ccccc2c1=O | 4.3894% |
| COc1cccc(C(=O)Nc2ccc(-c3nc4ccccc4[nH]3)cc2)c1 | 15.5734% |
| CCCCOC(=O)c1ccc(Nc2cc(C)nc3ccc(OC)cc23)cc1 | 15.2218% |
| CCOc1ccc(N2C(N)=NC(N)=NC2(C)C)cc1.Cl | -4.3826% |
| Oc1ccc(-c2nc(-c3ccc4oc5ccc(-c6[nH]c(-c7ccc(O)cc7)nc6-c6ccccc6)cc5c4c3)c(-c3ccccc3)[nH]2)cc1 | 21.6376% |
| CCOC(=O)C1=CN(C)C=C(C(=O)OCC)C1c1cc(Br)c(OCC)c(OC)c1 | 20.4206% |
| COc1ccc(-c2nc(NC(=O)CS(=O)(=O)c3ccc(F)cc3)sc2C)cc1 | 30.52% |
| CCN(Cc1ccccc1)C1CCN(Cc2cc(Br)ccc2O)CC1.O=C(O)C(=O)O | 47.2545% |
| O=C(Nc1ccc(F)c(Cl)c1)Nc1ccc(Cl)c(Cl)c1 | 4.6714% |
| COCCNC(=O)c1ccc(OC2CCN(Cc3ccc(F)c(F)c3)CC2)c(Cl)c1 | 5.6964% |
| CCOc1cc2c(cc1OCC)C(c1cc(C)c(O)c(C)c1)NCC2.Cl (centres undefined) | 25.854% |
| CCOC(=O)C1CCN(C(=O)CN2C(=O)c3ccccc3C2c2c[nH]c3ccccc23)CC1 (centres undefined) | 48.711% |

| Compound | Growth Inhibition |
| --- | --- |
| COc1ccc(C=C2SC(Nc3ccc(F)cc3)=NC2=O)c(OC)c1 | 32.1464% |
| O=C(Nc1ccc(Cl)cc1C(=O)Nc1ccncc1)c1ccc(Cl)cc1Cl | 4.844% |
| CCCCCC(=O)N1c2ccccc2N=C2CC(c3ccc(OC)c(OC)c3)CC(O)=C2C1c1ccc(C(F)(F)F)cc1 (centres undefined) | 33.4948% |
| COc1ccc(/C=C2/SC(=Nc3ccccc3)NC2=O)cc1 | 42.24% |
| COc1ccccc1CNC(=O)CCn1c(=O)[nH]c2ccccc2c1=O | -1.4414% |
| CCC(c1ccccc1)c1nn2c(-c3cccs3)nnc2s1 (centres undefined) | 4.041% |
| CCOC(=O)C1=C(C)N=c2sc(=Cc3cc(Cl)ccc3O)c(=O)n2C1c1ccc(OC)cc1 (centres undefined) | 18.9955% |
| CN(N=O)C1=C(NC2CCCCC2)C(=O)c2ccccc2C1=O | 32.2% |
| CCOC(=O)c1cnc2c(C)cccc2c1Nc1ccc(C(C)=O)cc1 | 14.9964% |
| O=C(Nc1ccc(N2CCN(Cc3ccccc3)CC2)cc1)c1cccs1.O=C(O)C(F)(F)F | -8.6144% |
| CCCCCCc1cc2cc(-c3nc4ccccc4[nH]3)c(=Nc3ccccc3C)oc2cc1O | 18.3094% |
| O=C(Nc1ccc(-c2nc3cc4ccccc4cc3[nH]2)cc1)c1cccc(Br)c1 | 12.54% |
| CCc1ccc(Nc2cc(C)nc3nc(C)nn23)cc1 | -2.3802% |
| COCCN(C(=O)Cc1cccs1)C(C(=O)NCc1ccc(OC)cc1)c1ccc(C(C)C)cc1 (centres undefined) | 12.1412% |
| COc1ccc2nc(C)cc(Nc3ccccc3O)c2c1 | 10.6942% |
| Cc1ccc(Cl)cc1N1CCN(CCCNC(=O)C2CCN(c3nc4ccccc4[nH]3)CC2)CC1 | 21.502% |
| COc1ccc(C(=O)NC(c2ccccc2Cl)c2cc(Cl)c3cccnc3c2O)cc1 (centres undefined) | 27.7302% |
| CCOc1cccc2sc(N(Cc3cccnc3)C(=O)C3CCCCC3)nc12 | 1.8442% |
| CC(C)(C)c1ccc(C(=O)Nc2c3c(nn2-c2cccc(Cl)c2)CSC3)cc1 | 9.0986% |
| COc1ccc(-n2ccnc2SCC(=O)Nc2cc(C)ccc2C)c(OC)c1 | 2.884% |
| CCOC(=O)c1cnc2ccc(OC)cc2c1NCc1ccccc1 | 11.9674% |

| Compound | Growth Inhibition |
| --- | --- |
| Cl.OC(CNCc1ccccc1)Cn1c2ccccc2c2ccccc21 (centres undefined) | 33.103% |
| Cc1cc(NC(=O)c2cccc(C(F)(F)F)c2)n(-c2nc(-c3ccc4c(c3)OCO4)cs2)n1 | 1.3202% |
| CC(C)(C)c1ccc(C(=O)Nc2nc3ccccc3s2)cc1 | 9.3876% |
| CCOc1ccc2nc(C)cc(Nc3ccc(Br)cc3)c2c1 | -8.7645% |
| O=C(Nc1ccc(N2CCCCC2)c(Cl)c1)c1ccc(Br)o1 | -4.8588% |
| COc1ccc(-c2nc(N3CCN(C(=O)C4CCCCC4)CC3)c3c4c(sc3n2)CCCC4)cc1 | -0.9006% |
| CN1C=C(c2ccc3ccccc3n2)C(c2c[nH]c3ccccc23)c2ccccc21 (centres undefined) | 12.6514% |
| COc1ccc(Br)cc1C1Nc2ccc3ccccc3c2C2=C1C(=O)CC(c1ccccc1)C2 (centres undefined) | 7.0344% |
| C=C(C)CCC(C)N1CCC(N2CCC(C(=O)NCCc3ccccc3)CC2)CC1 (centres undefined) | 9.4772% |
| Brc1ccc(Nc2nc3ccccc3nc2Nc2ccc(Br)cc2)cc1 | 6.7896% |
| CCCCNc1nc(NC(C)(C)C)nc(NC(C)(C)C)n1 | 40.1594% |
| Br.CCn1c2c(c(=N)c3c1CCC3)CCCC2 | -4.7115% |
| O=c1cc(NC2CCN(CCCc3ccccc3)CC2)c2cc(Cl)ccc2o1 | 18.578% |
| CC1CCN(Cc2ccc(NC(=O)c3cc4ccc5cccnc5c4[nH]3)cc2)CC1 | 2.4882% |
| COc1cc2c3cc1Oc1c(OC)c(OC)cc4c1C(Cc1ccc(O)c(c1)Oc1ccc(cc1)CC3N(C)CC2)N(C)CC4.Cl (centres undefined) | 37.697% |
| CCN1CCN(c2cc(C)c3cc(NC(=O)c4ccc(OC)c(OC)c4)ccc3n2)CC1 | 12.8102% |
| Cc1sc(NC(=O)c2ccccc2)c(C(c2cccs2)N2CCN(c3ccccc3)CC2)c1C (centres undefined) | 0.692% |
| O=C(O)C(=O)O.Oc1ccc(Br)cc1CN1CCN(Cc2cccc(F)c2)CC1 | 29.456% |
| COc1ccc(CN2CCCC(C(=O)c3ccc(C(F)(F)F)cc3)C2)c(O)c1 (centres undefined) | 43.708% |
| Cc1ccc(-c2cc(C(=O)Nc3ccc(S(=O)(=O)N4CCCCC4)cc3)[nH]n2)c(O)c1 | 28.7504% |
| CSC1=NC(=Nc2c(C)cccc2C)C2(CCC(C(C)(C)C)CC2)N1c1ccc(Cl)cc1 (centres undefined) | -2.9236% |
